In ChEMBL document CHEMBL5653631, “A Potent and Selective ULK1 Inhibitor Suppresses Autophagy and Sensitizes Cancer Cells to Nutrient Stress” (iScience, 2018):

How the values were obtained:
[1] = molecular target: Serine/threonine-protein kinase Nek4 (Homo sapiens) (UniProt P51957); test: Inhibition of human recombinant NEK4 at 500 nM in presence of ATP by radiometric assay relative to control
[2] = molecular target: Rho-associated protein kinase 2 (Homo sapiens) (UniProt O75116); test: Inhibition of human recombinant ROCK2 at 500 nM in presence of ATP by radiometric assay relative to control
[3] = molecular target: Casein kinase I isoform gamma-2 (Homo sapiens) (UniProt P78368); test: Inhibition of human recombinant CK1g2 at 500 nM related to control ULK1
[4] = molecular target: Dual specificity protein kinase CLK2 (Homo sapiens) (UniProt P49760); test: Inhibition of human recombinant CLK2 at 500 nM related to control ULK1
[5] = molecular target: Dual specificity protein kinase CLK3 (Homo sapiens) (UniProt P49761); test: Inhibition of human recombinant CLK3 at 500 nM related to control ULK1
[6] = molecular target: Serine/threonine-protein kinase MRCK beta (Homo sapiens) (UniProt Q9Y5S2); test: Inhibition of human recombinant MRCKb at 500 nM related to control ULK1
[7] = molecular target: T1, Tyrosine-protein kinase TXK (Homo sapiens) (UniProt P42681); test: Inhibition of human recombinant TXK at 15 nM in presence of ATP by radiometric assay relative to control
T1 sequence (whole entry): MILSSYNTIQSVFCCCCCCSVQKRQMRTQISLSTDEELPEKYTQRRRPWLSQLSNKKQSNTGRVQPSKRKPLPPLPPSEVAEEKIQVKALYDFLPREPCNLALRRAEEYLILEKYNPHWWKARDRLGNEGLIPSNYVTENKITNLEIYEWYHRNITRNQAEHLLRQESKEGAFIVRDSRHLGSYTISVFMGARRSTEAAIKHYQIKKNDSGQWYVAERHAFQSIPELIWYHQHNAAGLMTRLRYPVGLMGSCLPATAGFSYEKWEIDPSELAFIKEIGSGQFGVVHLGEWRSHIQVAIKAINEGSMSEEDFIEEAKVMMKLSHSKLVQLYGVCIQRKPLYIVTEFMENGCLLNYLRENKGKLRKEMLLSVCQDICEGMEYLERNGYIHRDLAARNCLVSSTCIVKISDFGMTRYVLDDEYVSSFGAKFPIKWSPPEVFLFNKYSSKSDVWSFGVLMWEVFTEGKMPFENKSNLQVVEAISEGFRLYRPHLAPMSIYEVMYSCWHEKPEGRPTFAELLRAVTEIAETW

[8] = molecular target: Calcium/calmodulin-dependent protein kinase type II subunit beta (Homo sapiens) (UniProt Q13554); test: Inhibition of human recombinant CaMK2b at 15 nM related to control ULK1
[9] = molecular target: Serine/threonine-protein kinase WNK2 (Homo sapiens) (UniProt Q9Y3S1); test: Inhibition of human recombinant Wnk2 at 15 nM related to control ULK1
[10] = molecular target: T2, Phosphorylase b kinase gamma catalytic chain, liver/testis isoform (Homo sapiens) (UniProt P15735); test: Inhibition of human recombinant PHKg2 at 40 nM in presence of ATP by radiometric assay relative to control
T2 sequence (whole entry): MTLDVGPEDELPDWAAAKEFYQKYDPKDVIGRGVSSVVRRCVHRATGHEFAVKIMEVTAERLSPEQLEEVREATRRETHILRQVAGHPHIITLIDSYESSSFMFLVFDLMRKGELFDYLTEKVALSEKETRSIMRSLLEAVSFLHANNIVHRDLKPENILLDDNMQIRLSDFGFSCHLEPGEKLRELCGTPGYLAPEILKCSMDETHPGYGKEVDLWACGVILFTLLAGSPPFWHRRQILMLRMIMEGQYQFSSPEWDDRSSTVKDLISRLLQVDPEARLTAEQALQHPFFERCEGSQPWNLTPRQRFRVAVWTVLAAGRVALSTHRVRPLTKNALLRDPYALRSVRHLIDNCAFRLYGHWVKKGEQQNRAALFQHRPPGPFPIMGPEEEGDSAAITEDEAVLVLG

[11] = molecular target: T3, cAMP-dependent protein kinase catalytic subunit PRKX (Homo sapiens) (UniProt P51817); test: Inhibition of human recombinant PRKX at 40 nM in presence of ATP by radiometric assay relative to control
T3 sequence (whole entry): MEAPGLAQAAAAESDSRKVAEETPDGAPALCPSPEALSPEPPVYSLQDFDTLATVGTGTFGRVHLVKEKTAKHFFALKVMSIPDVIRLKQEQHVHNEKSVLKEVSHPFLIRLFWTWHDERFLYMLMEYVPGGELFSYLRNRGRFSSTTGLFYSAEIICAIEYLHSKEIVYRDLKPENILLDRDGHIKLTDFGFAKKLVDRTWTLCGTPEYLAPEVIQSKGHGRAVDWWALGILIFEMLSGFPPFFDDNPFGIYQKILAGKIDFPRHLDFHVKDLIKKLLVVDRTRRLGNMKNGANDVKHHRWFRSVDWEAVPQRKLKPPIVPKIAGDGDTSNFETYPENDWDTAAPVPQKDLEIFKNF

[12] = molecular target: Tyrosine-protein kinase FRK (Homo sapiens) (UniProt P42685); test: Inhibition of human recombinant FRK at 40 nM related to control ULK1
[13] = molecular target: Maternal embryonic leucine zipper kinase (Homo sapiens) (UniProt Q14680); test: Inhibition of human recombinant MELK at 40 nM related to control ULK1
[14] = molecular target: T4, Tyrosine-protein kinase ZAP-70 (Homo sapiens) (UniProt P43403); test: Inhibition of human recombinant ZAP70 at 40 nM related to control ULK1
T4 sequence (whole entry): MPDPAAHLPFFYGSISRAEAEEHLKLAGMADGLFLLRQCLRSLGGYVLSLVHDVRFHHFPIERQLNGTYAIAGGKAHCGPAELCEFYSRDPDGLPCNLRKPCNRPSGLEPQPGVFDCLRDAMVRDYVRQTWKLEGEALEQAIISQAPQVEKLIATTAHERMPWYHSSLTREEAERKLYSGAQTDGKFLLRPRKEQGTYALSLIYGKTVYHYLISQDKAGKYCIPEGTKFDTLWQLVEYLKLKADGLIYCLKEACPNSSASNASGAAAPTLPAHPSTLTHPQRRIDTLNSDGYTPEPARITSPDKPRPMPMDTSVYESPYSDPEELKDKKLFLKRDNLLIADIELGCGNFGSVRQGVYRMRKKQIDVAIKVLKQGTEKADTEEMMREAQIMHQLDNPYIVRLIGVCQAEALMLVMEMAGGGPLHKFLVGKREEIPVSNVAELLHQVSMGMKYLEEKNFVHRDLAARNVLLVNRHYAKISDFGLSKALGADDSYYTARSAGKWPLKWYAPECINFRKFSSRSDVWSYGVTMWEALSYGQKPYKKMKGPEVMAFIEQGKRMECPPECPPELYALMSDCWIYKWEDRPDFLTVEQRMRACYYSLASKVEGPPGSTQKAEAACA

Chain of Casein kinase I isoform gamma-2 (Homo sapiens) (P78368 whole entry, looked up, canonical isoform): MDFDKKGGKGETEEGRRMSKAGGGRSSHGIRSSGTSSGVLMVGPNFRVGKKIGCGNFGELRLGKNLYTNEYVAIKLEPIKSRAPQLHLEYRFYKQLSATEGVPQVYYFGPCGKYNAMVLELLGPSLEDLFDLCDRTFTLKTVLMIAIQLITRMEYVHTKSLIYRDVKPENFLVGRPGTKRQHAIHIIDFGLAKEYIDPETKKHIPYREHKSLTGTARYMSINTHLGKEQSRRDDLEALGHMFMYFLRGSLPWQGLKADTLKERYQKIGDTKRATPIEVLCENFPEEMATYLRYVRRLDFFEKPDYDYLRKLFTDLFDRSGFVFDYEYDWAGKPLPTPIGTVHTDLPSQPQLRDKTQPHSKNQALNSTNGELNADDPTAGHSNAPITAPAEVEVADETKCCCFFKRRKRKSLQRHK
Chain of Dual specificity protein kinase CLK2 (Homo sapiens) (P49760 whole entry, looked up): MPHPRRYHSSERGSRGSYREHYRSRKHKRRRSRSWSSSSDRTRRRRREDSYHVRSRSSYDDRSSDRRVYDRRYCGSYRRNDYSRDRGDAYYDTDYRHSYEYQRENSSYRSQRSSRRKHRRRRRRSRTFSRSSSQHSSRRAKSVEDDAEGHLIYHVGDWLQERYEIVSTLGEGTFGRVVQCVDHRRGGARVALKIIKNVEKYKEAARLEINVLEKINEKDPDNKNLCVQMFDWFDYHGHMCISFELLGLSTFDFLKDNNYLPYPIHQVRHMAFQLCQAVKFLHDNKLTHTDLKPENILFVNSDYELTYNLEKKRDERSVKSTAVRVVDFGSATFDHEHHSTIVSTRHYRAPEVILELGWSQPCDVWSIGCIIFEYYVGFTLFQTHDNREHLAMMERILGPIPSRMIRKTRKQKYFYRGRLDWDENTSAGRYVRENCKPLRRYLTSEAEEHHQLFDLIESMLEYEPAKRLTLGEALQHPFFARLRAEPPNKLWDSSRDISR
Chain of Calcium/calmodulin-dependent protein kinase type II subunit beta (Homo sapiens) (Q13554 whole entry): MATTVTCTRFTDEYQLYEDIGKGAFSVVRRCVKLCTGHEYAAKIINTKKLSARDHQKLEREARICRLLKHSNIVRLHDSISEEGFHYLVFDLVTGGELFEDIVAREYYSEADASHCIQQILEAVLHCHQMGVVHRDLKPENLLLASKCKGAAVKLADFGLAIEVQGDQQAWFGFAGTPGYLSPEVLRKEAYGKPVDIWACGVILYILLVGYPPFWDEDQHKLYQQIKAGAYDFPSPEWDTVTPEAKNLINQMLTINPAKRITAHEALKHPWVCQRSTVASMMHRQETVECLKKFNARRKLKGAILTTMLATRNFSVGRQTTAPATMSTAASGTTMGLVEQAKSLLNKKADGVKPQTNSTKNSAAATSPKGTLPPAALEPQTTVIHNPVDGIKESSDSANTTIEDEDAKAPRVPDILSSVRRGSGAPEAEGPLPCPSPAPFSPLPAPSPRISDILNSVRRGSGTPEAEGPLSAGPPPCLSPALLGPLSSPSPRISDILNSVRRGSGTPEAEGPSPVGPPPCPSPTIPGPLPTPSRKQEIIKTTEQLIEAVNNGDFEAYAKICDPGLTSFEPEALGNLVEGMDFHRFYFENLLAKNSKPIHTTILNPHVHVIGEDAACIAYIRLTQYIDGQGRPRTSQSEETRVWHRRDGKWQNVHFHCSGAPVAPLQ
Chain of Rho-associated protein kinase 2 (Homo sapiens) (O75116 whole entry, looked up, canonical isoform): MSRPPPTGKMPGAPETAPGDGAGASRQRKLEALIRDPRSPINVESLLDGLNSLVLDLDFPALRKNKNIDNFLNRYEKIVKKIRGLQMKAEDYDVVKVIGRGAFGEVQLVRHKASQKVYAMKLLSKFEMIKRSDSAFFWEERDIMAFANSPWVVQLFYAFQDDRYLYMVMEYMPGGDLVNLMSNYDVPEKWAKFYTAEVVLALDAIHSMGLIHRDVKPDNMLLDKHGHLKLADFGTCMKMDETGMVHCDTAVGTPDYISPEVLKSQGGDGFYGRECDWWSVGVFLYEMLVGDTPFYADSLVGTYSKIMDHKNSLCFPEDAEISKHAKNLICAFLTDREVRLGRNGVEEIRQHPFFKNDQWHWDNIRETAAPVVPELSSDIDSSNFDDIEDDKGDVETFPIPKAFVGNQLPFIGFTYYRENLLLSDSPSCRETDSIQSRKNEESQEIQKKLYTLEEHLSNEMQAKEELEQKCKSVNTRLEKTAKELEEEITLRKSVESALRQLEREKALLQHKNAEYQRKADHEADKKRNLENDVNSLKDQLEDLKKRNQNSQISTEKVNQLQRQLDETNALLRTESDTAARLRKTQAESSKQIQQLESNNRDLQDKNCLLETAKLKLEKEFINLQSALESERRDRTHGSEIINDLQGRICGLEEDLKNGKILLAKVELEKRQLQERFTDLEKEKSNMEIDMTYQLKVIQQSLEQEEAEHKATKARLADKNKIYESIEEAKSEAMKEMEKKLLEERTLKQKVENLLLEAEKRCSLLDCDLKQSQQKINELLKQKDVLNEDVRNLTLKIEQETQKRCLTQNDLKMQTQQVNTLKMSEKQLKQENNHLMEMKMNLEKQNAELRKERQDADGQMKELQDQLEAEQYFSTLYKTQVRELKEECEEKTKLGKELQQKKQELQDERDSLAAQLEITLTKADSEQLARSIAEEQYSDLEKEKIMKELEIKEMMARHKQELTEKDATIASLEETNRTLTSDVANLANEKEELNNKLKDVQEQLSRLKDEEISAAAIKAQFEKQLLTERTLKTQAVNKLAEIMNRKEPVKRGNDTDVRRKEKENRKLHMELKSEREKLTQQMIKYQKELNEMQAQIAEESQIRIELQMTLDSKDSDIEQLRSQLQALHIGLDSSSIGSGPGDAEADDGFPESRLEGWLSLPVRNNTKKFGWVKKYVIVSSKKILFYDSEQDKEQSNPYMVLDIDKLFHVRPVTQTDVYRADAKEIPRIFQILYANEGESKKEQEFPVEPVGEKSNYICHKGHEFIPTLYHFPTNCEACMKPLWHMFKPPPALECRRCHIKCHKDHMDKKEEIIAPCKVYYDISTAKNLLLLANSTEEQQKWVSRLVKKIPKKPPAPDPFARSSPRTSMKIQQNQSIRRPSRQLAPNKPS
Chain of Maternal embryonic leucine zipper kinase (Homo sapiens) (Q14680 whole entry, looked up): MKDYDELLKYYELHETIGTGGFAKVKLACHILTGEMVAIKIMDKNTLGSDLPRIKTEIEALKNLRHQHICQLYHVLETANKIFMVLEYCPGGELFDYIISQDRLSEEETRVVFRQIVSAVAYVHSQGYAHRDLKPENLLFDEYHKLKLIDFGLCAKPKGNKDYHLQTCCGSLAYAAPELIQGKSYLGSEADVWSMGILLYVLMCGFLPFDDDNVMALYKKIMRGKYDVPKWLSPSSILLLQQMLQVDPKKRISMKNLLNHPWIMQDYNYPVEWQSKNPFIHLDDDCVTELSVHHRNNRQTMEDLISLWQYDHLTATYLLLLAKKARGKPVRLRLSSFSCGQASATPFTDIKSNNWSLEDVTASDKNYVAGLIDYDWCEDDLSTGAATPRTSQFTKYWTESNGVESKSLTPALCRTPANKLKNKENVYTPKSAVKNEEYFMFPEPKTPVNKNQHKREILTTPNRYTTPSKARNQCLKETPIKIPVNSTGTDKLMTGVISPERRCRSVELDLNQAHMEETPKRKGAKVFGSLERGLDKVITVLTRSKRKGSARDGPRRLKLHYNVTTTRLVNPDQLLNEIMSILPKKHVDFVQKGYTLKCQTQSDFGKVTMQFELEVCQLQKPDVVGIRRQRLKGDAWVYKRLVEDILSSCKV
Chain of Serine/threonine-protein kinase Nek4 (Homo sapiens) (P51957 whole entry, looked up): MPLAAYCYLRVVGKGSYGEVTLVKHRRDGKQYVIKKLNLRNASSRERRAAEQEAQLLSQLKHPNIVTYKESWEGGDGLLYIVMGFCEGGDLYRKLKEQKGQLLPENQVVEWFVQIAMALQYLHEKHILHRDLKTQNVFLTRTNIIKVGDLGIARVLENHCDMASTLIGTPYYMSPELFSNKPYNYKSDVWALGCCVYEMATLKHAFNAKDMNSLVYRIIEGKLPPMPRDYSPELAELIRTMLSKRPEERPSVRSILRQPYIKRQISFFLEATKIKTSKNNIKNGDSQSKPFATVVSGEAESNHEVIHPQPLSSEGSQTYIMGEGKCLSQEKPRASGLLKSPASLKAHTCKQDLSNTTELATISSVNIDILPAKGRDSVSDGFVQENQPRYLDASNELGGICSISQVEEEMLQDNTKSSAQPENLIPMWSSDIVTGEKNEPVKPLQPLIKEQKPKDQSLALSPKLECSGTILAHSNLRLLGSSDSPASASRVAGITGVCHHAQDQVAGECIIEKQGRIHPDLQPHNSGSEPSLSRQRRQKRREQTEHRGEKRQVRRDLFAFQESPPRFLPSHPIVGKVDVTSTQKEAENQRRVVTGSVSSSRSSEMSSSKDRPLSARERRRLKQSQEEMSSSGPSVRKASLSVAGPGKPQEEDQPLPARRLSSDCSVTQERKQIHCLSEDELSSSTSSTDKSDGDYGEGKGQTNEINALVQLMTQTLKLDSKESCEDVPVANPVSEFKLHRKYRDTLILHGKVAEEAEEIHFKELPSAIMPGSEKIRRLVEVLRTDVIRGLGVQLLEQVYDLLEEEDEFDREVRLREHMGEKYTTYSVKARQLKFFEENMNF
Chain of Tyrosine-protein kinase FRK (Homo sapiens) (P42685 whole entry): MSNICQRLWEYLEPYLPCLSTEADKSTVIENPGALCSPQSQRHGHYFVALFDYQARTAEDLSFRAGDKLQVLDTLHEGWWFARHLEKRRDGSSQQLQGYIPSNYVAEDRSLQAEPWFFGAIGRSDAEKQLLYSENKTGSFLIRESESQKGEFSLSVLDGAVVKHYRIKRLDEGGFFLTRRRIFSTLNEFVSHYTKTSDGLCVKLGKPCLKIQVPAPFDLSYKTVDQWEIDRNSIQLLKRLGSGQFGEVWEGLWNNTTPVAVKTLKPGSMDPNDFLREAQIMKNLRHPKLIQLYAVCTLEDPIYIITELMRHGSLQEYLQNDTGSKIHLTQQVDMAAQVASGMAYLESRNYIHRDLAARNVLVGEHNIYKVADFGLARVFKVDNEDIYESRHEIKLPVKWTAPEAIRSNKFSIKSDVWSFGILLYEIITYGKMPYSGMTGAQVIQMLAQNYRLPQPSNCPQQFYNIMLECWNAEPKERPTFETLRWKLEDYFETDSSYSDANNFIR

`CNC(=O)c1ccccc1Oc1nc(Nc2cc(OC)c(OC)c(OC)c2)ncc1Br` showed an inhibition [1] of 23%, an inhibition [2] of 0% and a fold change (FC) [3] of 0. For the same molecule, the fold change (FC) [4] was 0.09, the fold change (FC) [5] was 0 and the fold change (FC) [6] was 0.

In the case of `CC(C)[C@H](NC(=O)c1cc(-c2cnn3cc(-c4ccc(OCCN5CCCCC5)cc4)cnc23)cs1)C(F)(F)F`, the inhibition [7] is reported as 59%, the fold change (FC) [8] is reported as 0.11 and the fold change (FC) [9] is reported as 0.02.

`O=C(N[C@@H](C1CC1)C(F)(F)F)c1cc(-c2cnn3cc(-c4ccc(F)cc4)cnc23)cs1` showed an inhibition [10] of 0%, an inhibition [11] of 20% and a fold change (FC) [12] of 0. It also gave a fold change (FC) [13] of 0.27 and a fold change (FC) [14] of 0.
